Consider one substance from patent US20240238237A1, “CONJUGATED LINOLEIC ACID SUPPLEMENTATION FOR DISEASE TREATMENT” (VIRGINIA TECH INTELLECTUAL PROPERTIES, INC., priority 2021, published 2024).

Entries after “also recorded” stand apart in the source; their conditions may differ.

Common to all, as to type: in vivo, mouse
Series [1] has as its system C57Bl/6 WT and PWS mice; 129v/J WT and Nhlh2 KO mice. As to the kind of experiment: Elevated plus maze anxiety symptoms, Example 2. How it is done:
Mice were tested, using a pre-post design and an elevated plus maze for anxiety symptoms FIG. 16A. Mice that are anxious generally will spend less time in the open arms, compared to those without anxiety. PWS patients show a number of neurobehavioural traits with the most commonly diagnosed phenotype being anxiety. In this study mice were placed in the middle of a plus-type maze, and entrance, as well as time spent in open or closed arms over a 5 minute period were tested. Mice were tested only once before entering the 12-week feeding stud, and once at the end of the 12-week feeding study. The percent time is reported. The data shown in FIG. 16B-16C show a comparison between pre-week test results, and the two treatment groups for each genotype in the post-week test. As shown in FIGS. 16B and 16C, the percent time in open arms was less for all animals. […] These findings can be translated to treatment of humans with anxiety.

In series [2] the test system is WT, PWS (Snord116m+/p−) and PWS-KO (Snord116m−/p−) mice. As to the kind of experiment: Spontaneous wheel running. Particulars: post-study. How it is done: For the spontaneous/motivated wheel running analysis, mice were placed in wire-bottom cages equipped with computer-monitored running wheels (Mini-mitter, Sunriver, OR, USA) for a total of 4 days, and then returned to their home cages. The first two days were not recorded as these were considered acclimation days, and the last 48 h were used for data collection. Mice had ad lib access to food and water during this time. For the pre-week, regular mouse chow was provided. For the post-week measurements, mice were supplied with their study diet during testing.

Series [3] relates to liver of WT, PWS and PWS-KO mice. In words: Liver histology (H&E). How it is done: Tissues were isolated immediately following euthanasia by CO2 asphyxiation and placed into 4% paraformaldehyde, overnight, with rocking at 4° C. The tissues were then rinsed in 70% ethanol and stored in 70% ethanol at 4° C. until processing. The Virginia Tech Veterinary Teaching Hospital at the Virginia-Maryland College of Veterinary Medicine processed the tissues for histology and stained with hematoxylin-eosin stain for microscopy. Representative samples were visualized using a 40× ocular on a Nikon Eclipse 50i micro-scope and captured using an Olympus Q-color3 camera.

Series [4] relates to WT, PWS (Snord116m+/p−) and PWS-KO (Snord116m−/p−) mice. As to the kind of experiment: Rotarod analysis, Example 1. Particulars: end of study. The protocol:
For rotarod analysis, animals were tested using a Columbus Instruments (Columbus, OH, USA) Economex Rota-Rod apparatus. All mice in the study were given four trials each day during the day (between 11 a.m. and 1 p.m.) for four consecutive days from 0 rpm to a maximum speed of 20 rpm, with an acceleration slope of 2.65%. Animals were tested for a maximum of 5 min of running per test, or until the animals fell off the device. The Economex Rota-Rod apparatus is equipped with a pressure-sensitive landing area so that the time spent on the rotating rod is automatically recorded when the animal falls.
The procedure has been previously described. Animals were given between 10 and 15 min of rest in between trials. Note that there are four days of testing, with each day consisting of four trials. The initial trials on Day 1 use a lane where Applicant placed non-slip bathroom tape to provide a stable environment for the animal to learn the procedure. The non-taped lanes were used for Days 2-4. Days 2-3 serve as acclimation days. Day 4 data were used for analysis.
(In general: Falling from the rotarod earlier than controls is read as motor impairment.)

Series [5] has as its system N2KO (Nhlh2 deletion) and WT mice. As to the kind of experiment: Body weight, body fat and lean mass in N2KO mice, Example 3. The protocol: In males, incidence of HH is as high as one in 4000, with incidence in females being about 2-5 times lower. It was previously shown that mice containing a mutation of Nhlh2, a neuronal basic-helix-loop-helix transcription factor show a failure of pubertal onset, adult-onset obesity and hypogonadism. These mice are termed N2KO mice. […] In this Example, N2KO and WT mice were treated with about 0.5% CLA for 12 weeks.

On to conjugated linoleic acid [CLA], for which the “Percent time in open arms, 129v/J WT and Nhlh2 KO mice” value in series [1] (12 weeks CLA vs control diet) is “highly significant improvement”. In addition, the “Percent time in open arms, PWS mice” value in series [1] (C57Bl/6 PWS mice, post-week) is on record as “numeric improvement”. Moreover, in series [2], the “24 h spontaneous wheel running” value is “non-significant”. Moreover, the “Mice with liver steatosis on CLA diet, PWS and PWS-KO” value in series [3] (PWS and PWS-KO) is on record as roughly 50%. Besides, the “Liver steatosis, PWS-KO mice on CLA diet” value in series [3] (PWS-KO) is on record as “four of seven”. In series [3] (PWS, two of these mild), the “Liver steatosis, PWS mice on CLA diet” value is “five of eight”. Further, in series [3] (WT), the “Liver steatosis, WT mice on CLA diet” value is “all liver sections” and the “Mice with liver steatosis on CLA diet, WT” value is reported as 100%. Further, the Rotarod ability entry in series [4] was “not affected”. Moreover, the “Lean mass, N2KO study” value in series [5] (12 weeks CLA) is given as “significantly improved”. Besides, in series [5] (about 0.5% CLA for 12 weeks), the “Body fat, N2KO mice” value is “reduced; also recorded: decreased body fat; also recorded: significant reduction” and the “Body weight, N2KO mice” value was “reduced body weight; also recorded: improved body weight; also recorded: significant reduction”.
